The numbers were not newly measured in PMC6166790 (Nature, 2018), which cites them from elsewhere.

The data set deals with CLR/RAMP2 or CLR/RAMP3.

As to adrenomedullin [AM], the receptor response selectivity result is “selective AM responses”.
